In US20110183925A1, “ANTI-INFLAMMATORY PEPTIDE” (NISSHIN PHARMA INC., priority 2008, published 2011):
Where no end group is shown, it is not given here. [ ]: non-standard residue; d: D form. pGlu = O=C1CC[C@@H](C(=O)O)N1

Assays:
Caspase-1 (ICE) = biological target: T1, Caspase-1 (ICE) (Homo sapiens, UniProt P29466); experiment: Measurement of ICE-inhibiting activity (Ac-Trp-Glu-His-Asp-AMC substrate, HPLC quantification); format: biochemical; settings: 1 mg/mL peptide sample, 5 μL in reaction; 37° C., 20 minutes; Control (No Peptide) = 100%; lower = more inhibition
T1 construct: purchased Biomol; International LP
T1 sequence (P29466 120-297 limits assumed): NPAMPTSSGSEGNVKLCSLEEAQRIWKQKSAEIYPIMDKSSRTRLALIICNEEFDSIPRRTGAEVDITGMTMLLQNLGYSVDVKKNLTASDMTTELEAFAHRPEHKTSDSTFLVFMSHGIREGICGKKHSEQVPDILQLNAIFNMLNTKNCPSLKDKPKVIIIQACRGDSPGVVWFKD
T1 sequence (P29466 317-404 limits assumed): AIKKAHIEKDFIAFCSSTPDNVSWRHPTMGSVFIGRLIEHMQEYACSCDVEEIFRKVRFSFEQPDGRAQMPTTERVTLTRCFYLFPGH
Method: One mg/mL each of samples of pyroglutamyl peptides (pyroGlu-Leu, pyroGlu-Val, pyroGlu-Met, pyroGlu-Phe, pyroGlu-Gln-Gln, and pyroGlu-Pro-Gln) synthesized in Production Examples above were prepared and evaluated for ICE-inhibiting activity as follows.
Each sample (5 μL) was added to 10 μL of 2,000 μmol/L reactive substrate (Caspase-1 substrate (Ac-Trp-Glu-His-Asp-AMC) from Alexis Biochemicals), 5 μL of 10 U/μl enzyme solution (Caspase-1 from Biomol. International LP), 60 μL of buffer (50 mmol/L HEPES, pH 7.4, 100 mM NaCl, 0.1% CHAPS, 1 mM EDTA, 10% glycerol, and 10 mM DTT), and 20 μL of distilled water, which was reacted at 37° C. for 20 minutes. Thereto was added 10% trifluoroacetic acid to a final concentration of 1% to stop the reaction. The substrate and the product were separated under the following conditions using reversed-phase high-performance liquid chromatography. The substrate and the product were fluorescently measured at an excitation wavelength of 380 nm and a measuring wavelength of 460 nm for quantification.
(§1) (Chromatography Condition)
(§2) Solution A: 10% acetonitrile (0.1% TFA)/Solution B: 80% acetonitrile (0.1% TFA)
(§3) Gradient: Solution B from 50% to 100%
(§4) Measuring Wavelength: 230 nm
The results are shown in Table 2 below as the ratio of the fluorescence intensity of the product to the fluorescence intensity of the product and the substrate.

Recombinant Human TACE = biological target: T2, Recombinant Human TACE (Homo sapiens, UniProt P78536); experiment: Measurement of TACE-inhibiting activity (fluorogenic substrate, HPLC quantification); format: biochemical; settings: 1 mg/mL peptide sample, 10 μL in reaction; 37° C., 20 minutes; Control (No Peptide) = 100%; lower = more inhibition
T2 construct: purchased R&D Systems
T2 sequence (P78536 215-824): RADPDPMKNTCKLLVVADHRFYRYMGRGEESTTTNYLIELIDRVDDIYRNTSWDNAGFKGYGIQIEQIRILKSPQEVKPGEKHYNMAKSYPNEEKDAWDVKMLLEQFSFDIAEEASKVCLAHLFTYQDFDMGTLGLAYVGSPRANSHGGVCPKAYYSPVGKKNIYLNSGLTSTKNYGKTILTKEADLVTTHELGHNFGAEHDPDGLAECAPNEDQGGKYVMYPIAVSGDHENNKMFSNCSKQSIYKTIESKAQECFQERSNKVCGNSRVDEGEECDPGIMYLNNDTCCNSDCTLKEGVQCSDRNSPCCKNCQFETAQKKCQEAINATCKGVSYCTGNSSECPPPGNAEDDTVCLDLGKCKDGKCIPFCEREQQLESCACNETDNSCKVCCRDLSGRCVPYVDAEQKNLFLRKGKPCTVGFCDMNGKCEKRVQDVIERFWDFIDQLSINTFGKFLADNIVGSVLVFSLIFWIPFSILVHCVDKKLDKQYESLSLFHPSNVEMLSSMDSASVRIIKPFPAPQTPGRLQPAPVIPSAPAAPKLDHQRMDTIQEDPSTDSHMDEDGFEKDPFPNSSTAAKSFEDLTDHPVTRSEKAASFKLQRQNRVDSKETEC
Method: One mg/mL each of samples of pyroglutamyl peptides (pyroGlu-Leu, pyroGlu-Val, pyroGlu-Met, pyroGlu-Phe, pyroGlu-Gln-Gln, and pyroGlu-Pro-Gln) synthesized in Production Examples above were prepared and evaluated for TACE-inhibiting activity as follows.
Each sample (10 μL) was added to 10 μL of 1 μmol/L reactive substrate (TACE Substrate (Mac-PLAQAV-Dpa-RSSSR-NH2) from Biomol. International LP), 10 μL of 10 ng/10 μL enzyme solution (Recombinant Human TACE from R&D Systems), 50 μL of buffer (50 mmol/L Tris-HCl, pH 9.0, 5 μM ZnCl2, 0.01% Brij35), and 20 μL of distilled water, which was reacted at 37° C. for 20 minutes. Thereto was added 10% trifluoroacetic acid to a final concentration of 1% to stop the reaction. The substrate and the product were separated under the following conditions using reversed-phase high-performance liquid chromatography. The substrate and the product were fluorescently measured at an excitation wavelength of 320 nm and a measuring wavelength of 405 nm for quantification.
as §1, §2, §3, §4
The results are shown in Table 1 below as the ratio of the fluorescence intensity of the product to the fluorescence intensity of the product and the substrate.

Substance | ratio of the fluorescence intensity of the product to the fluorescence intensity of the product and the substrate (ICE/caspase-1 reaction) (Caspase-1 (ICE)) [%] | ratio of the fluorescence intensity of the product to the fluorescence intensity of the product and the substrate (TACE reaction) (Recombinant Human TACE) [%]
[pGlu]-Leu | 55 | 61
[pGlu]-Met | 75 | 83
[pGlu]-Gln-Gln | 63 | 70
[pGlu]-Pro-Gln | 62 | 66
[pGlu]-Val | 74 | 81
pyroGlu-Phe | 72 | 84
